Experimental data reported in ChEMBL document CHEMBL1201862, “PubChem BioAssay data set” (2004).
Activity calls are given as the source filed them.

Assays:
[1] = target: G-protein coupled receptor 55 (Homo sapiens, UniProt Q9Y2T6); assay: GPR55 antagonists blocking LPI-driven arrestin recruitment, primary screen, imaging, U2OS, beta-arrestin-GFP, LPI agonist (AID 2013); format: functional;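 also: antagonist potency measured as reduced agonist-driven arrestin aggregation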
[2] = inhibition of K1F phage lysis, E. coli UTI89, bacterial capsule biogenesis inhibitors, alamar blue (AID 488966); format: functional
[3] = target: T1, Voltage-dependent T-type calcium channel subunit alpha-1H (Homo sapiens, UniProt O95180); format: functional;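 also: channel activity triggered by adding a high calcium stimulation buffer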
[4] = target: T2, Corticotropin-releasing factor receptor 2/Corticotropin-releasing factor-binding protein (Homo sapiens, UniProt P24387+Q13324); assay: Dose Response confirmation of uHTS hits for small molecule antagonists of the CRF-binding protein and CRF-R2 receptor complex.; format: functional; details: read-out: IC50_Mean
T2 sequence (Q13324 whole entry): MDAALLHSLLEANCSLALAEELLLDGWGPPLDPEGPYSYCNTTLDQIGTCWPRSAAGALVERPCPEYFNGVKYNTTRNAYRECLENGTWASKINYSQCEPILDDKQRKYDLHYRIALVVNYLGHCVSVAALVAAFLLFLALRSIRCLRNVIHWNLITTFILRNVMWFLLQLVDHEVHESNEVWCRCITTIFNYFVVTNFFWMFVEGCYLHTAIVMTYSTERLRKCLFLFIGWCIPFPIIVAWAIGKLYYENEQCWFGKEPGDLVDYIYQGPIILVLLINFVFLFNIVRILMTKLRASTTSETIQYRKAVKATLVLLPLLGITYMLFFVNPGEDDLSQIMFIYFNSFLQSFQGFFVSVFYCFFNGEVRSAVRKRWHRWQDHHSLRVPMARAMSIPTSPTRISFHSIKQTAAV
T2 sequence (P24387 whole entry): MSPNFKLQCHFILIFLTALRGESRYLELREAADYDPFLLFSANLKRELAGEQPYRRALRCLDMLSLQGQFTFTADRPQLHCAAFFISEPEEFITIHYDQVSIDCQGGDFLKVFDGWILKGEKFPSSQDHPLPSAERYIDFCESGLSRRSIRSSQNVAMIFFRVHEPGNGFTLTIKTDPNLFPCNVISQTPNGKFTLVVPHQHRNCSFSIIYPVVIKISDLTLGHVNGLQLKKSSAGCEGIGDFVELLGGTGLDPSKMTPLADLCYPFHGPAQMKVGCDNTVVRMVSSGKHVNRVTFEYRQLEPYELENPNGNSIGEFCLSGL

[5] = target: T2, Corticotropin-releasing factor receptor 2/Corticotropin-releasing factor-binding protein; assay: activators of CRF receptor 2 with binding protein – uHTS hits, confirmation (AID 602473); format: functional; details: read-out: EC50_Mean
[6] = target: T3, Mu-type opioid receptor (Homo sapiens, UniProt P35372); assay: MOR agonists by imaging, SAR follow-up, image-based (AID 2352); format: functional
[7] = target: T4, Delta-type opioid receptor (Homo sapiens, UniProt P41143); assay: DOR agonists, SAR follow-up, image-based (AID 2370); format: functional
[8] = target: T5, Kappa-type opioid receptor (Homo sapiens, UniProt P41145); assay: KOR antagonists by imaging, SAR follow-up, image-based (AID 2348); format: functional
[9] = target: T3, Mu-type opioid receptor; assay: MOR antagonists, SAR follow-up, image-based (AID 2420); format: functional;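 also: compounds added before stimulation of receptor with agonist DAMGO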
[10] = target: T5, Kappa-type opioid receptor; assay: KOR agonist analogs, imaging readout, SAR follow-up, image-based (AID 2359); format: functional
[11] = target: T4, Delta-type opioid receptor; assay: DOR antagonists, SAR follow-up, image-based (AID 2357); format: functional
[12] = target: T5, Kappa-type opioid receptor; assay: kappa opioid receptor blockers, cell-based, luminescence, beta-arrestin, SAR follow-up (AID 2285); format: functional
[13] = target: T6, Voltage-gated N-type calcium channel alpha-1B subunit/Amyloid beta A4 precursor protein-binding family A member 1 (Homo sapiens, UniProt Q00975+Q02410); assay: disruptors of Mint-PDZ/N-type channel peptide interaction – biochemical, HTRF, set 2, SAR follow-up (AID 434980); format: functional
[14] = target: T6, Voltage-gated N-type calcium channel alpha-1B subunit/Amyloid beta A4 precursor protein-binding family A member 1; assay: disruptors of Mint-PDZ/N-type channel peptide interaction – biochemical, HTRF, SAR follow-up (AID 2489); format: functional
[15] = target: Intestinal-type alkaline phosphatase (Homo sapiens, UniProt P09923); assay: Dose Response confirmation of uHTS hits from a small molecule inhibitors of human intestinal alkaline phosphatase via a luminescent assay. [Related pubchem assays (depositor defined):AID2544, AID2574]; format: functional
[16] = target: Protein Rev (Human immunodeficiency virus type 1 group M subtype B (isolate HXB2)(HIV-1), UniProt P04618); assay: inhibitors of Rev binding to RRE RNA, dose response, biochemical, fluorescence polarization, HIV-1 (AID 434976); design: species or system Human immunodeficiency virus 1
[17] = target: Female germline-specific tumor suppressor gld-1 (Caenorhabditis elegans, UniProt Q17339); assay: inhibitors of GLD-1 binding to TGE RNA, dose response, biochemical, fluorescence polarization, C. elegans (AID 2802);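 also: fluorescence polarization of labeled TGE RNA bound by purified gld-1 protein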
[18] = target: T7, Nucleotide-binding oligomerization domain-containing protein 2 (Homo sapiens, UniProt Q9HC29); assay: NOD2 signaling inhibitors, cell-based, luminescence, uHTS, HEK293 (AID 1566); format: functional
[19] = target: Tumor necrosis factor (Homo sapiens, UniProt P01375); assay: TNFa-triggered NF-kB activation inhibitors, SAR follow-up, cell-based, revised (AID 2337); format: functional
[20] = target: T8, Nucleotide-binding oligomerization domain-containing protein 1 (Homo sapiens, UniProt Q9Y239); assay: NOD1 signaling inhibitors, SAR follow-up, revised (AID 2333); format: functional
T8 sequence (Q9Y239 whole entry): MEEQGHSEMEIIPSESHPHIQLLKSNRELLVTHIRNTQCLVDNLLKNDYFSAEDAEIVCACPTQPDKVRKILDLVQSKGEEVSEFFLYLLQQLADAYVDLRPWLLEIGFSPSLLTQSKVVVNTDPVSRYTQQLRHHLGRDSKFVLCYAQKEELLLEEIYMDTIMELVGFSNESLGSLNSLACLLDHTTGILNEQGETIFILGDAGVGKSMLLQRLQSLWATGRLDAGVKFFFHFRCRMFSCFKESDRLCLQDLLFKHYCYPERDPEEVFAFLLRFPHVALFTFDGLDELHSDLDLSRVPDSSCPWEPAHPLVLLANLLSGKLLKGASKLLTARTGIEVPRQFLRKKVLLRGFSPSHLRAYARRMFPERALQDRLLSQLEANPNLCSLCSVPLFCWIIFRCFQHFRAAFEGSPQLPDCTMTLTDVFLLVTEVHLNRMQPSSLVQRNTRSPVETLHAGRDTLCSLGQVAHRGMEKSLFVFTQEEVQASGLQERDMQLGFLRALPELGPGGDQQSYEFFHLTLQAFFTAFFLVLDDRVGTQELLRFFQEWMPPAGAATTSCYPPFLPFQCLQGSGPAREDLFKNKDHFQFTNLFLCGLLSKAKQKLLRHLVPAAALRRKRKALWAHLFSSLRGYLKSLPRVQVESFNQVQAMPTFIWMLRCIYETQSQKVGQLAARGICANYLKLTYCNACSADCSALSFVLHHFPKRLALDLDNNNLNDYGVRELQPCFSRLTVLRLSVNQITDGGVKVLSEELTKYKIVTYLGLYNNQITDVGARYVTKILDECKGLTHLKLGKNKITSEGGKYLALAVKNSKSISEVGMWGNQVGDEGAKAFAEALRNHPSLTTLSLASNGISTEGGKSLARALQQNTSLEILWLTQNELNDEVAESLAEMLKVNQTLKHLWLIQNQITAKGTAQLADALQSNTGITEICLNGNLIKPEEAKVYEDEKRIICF

[21] = target: T7, Nucleotide-binding oligomerization domain-containing protein 2; assay: PubChem AID 2334; format: functional
[22] = THP-1 cell cytotoxicity, dose response, cytotoxicity control for non-replicating M. tuberculosis project (AID 489025); format: functional
[23] = HepG2 cell cytotoxicity, dose response, cytotoxicity control for non-replicating M. tuberculosis project (AID 489018); format: functional; details: Mycobacterium tuberculosis
[24] = cells; format: functional
[25] = target: T1, Voltage-dependent T-type calcium channel subunit alpha-1H; assay: Cav3.2 T-type channel inhibitors, cell-based, synthetic library set 1, calcium flux (AID 493022); format: functional

T5 sequence (P41145 whole entry): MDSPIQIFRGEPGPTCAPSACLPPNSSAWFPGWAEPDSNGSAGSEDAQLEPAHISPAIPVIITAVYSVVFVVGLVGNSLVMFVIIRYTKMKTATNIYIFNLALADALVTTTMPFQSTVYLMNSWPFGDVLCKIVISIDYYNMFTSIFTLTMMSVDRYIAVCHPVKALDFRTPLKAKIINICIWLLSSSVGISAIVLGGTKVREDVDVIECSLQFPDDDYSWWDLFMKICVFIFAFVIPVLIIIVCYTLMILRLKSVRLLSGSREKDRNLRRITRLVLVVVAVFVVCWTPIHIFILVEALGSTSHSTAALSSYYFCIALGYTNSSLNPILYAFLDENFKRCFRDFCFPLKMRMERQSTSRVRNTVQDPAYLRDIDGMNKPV
T6 sequence (Q00975 whole entry): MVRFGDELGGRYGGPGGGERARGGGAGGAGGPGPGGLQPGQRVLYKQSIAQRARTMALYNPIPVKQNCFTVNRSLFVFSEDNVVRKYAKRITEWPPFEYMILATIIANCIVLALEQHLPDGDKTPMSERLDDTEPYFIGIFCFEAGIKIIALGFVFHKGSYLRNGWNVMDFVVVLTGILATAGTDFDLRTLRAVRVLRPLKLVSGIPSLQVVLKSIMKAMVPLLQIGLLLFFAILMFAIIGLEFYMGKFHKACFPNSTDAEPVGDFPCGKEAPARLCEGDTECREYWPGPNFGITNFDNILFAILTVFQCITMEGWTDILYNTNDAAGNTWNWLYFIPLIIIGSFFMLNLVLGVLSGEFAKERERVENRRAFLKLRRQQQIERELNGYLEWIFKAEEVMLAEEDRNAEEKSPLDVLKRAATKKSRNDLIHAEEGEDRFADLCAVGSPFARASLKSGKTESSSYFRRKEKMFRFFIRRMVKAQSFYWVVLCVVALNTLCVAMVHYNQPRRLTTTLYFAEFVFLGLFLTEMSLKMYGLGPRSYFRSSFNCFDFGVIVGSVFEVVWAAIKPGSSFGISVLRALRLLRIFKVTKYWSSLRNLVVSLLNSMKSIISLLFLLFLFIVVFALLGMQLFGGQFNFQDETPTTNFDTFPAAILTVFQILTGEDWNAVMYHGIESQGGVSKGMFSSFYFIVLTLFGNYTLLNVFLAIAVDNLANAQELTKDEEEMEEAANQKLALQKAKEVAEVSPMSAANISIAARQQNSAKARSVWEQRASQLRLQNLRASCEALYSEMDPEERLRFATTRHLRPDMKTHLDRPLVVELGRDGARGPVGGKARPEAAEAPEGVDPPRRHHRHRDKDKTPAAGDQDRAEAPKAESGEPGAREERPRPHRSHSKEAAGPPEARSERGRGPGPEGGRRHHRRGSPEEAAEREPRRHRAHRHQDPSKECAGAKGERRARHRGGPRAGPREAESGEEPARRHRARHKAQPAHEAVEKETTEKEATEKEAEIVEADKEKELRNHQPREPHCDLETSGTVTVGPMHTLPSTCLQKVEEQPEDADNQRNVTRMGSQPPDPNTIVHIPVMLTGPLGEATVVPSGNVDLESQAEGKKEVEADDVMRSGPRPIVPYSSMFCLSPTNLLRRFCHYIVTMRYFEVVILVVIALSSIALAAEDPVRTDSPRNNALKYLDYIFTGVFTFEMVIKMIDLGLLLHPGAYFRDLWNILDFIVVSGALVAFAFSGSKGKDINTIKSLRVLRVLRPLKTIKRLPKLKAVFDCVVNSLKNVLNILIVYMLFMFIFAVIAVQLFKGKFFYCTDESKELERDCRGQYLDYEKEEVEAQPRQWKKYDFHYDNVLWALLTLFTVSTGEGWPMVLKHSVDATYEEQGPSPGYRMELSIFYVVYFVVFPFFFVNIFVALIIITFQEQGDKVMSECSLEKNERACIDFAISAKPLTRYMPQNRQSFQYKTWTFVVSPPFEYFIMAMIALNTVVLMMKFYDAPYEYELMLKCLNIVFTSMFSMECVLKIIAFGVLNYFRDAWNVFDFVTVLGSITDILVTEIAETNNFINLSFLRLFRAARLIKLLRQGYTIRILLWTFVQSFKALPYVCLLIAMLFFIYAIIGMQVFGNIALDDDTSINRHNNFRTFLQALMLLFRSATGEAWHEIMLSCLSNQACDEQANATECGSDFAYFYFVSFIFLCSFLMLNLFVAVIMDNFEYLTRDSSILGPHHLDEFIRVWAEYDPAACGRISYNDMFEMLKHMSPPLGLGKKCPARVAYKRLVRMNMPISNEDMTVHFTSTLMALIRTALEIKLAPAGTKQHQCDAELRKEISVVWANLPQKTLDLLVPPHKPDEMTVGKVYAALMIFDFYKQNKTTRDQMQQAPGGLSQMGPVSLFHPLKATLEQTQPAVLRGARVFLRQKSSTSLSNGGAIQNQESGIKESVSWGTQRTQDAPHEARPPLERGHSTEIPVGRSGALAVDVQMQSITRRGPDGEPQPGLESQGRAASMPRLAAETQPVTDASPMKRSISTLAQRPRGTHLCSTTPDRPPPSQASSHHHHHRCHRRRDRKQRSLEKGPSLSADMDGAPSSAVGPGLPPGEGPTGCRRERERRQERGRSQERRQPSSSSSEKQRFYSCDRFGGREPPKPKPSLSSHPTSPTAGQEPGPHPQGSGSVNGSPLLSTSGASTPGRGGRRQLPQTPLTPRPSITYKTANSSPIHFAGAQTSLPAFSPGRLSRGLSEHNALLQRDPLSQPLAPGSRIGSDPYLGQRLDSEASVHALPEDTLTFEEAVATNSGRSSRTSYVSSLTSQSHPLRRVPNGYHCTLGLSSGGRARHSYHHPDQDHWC
T6 sequence (Q02410 whole entry): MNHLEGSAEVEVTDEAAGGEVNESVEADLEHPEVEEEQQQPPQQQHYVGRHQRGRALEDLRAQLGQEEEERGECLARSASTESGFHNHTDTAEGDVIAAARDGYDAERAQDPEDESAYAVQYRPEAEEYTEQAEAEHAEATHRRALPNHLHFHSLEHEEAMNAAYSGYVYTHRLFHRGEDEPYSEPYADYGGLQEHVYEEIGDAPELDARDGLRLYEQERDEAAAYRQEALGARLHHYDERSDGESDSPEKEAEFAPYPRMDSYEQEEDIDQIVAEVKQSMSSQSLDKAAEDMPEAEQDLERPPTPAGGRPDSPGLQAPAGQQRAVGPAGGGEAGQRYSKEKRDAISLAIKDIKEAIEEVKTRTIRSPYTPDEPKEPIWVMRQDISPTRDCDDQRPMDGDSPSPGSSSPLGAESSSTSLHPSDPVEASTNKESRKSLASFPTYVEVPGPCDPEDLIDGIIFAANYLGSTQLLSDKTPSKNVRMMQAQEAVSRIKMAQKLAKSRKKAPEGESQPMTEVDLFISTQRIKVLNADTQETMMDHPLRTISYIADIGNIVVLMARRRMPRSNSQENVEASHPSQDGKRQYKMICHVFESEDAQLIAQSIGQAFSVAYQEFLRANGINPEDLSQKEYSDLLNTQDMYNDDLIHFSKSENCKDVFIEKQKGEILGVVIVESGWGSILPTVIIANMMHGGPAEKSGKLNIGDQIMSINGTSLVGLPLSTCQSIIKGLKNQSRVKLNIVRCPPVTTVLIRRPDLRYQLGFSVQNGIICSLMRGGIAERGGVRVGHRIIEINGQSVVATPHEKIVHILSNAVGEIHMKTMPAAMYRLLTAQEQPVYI
T7 sequence (Q9HC29 whole entry, the tested form may be a part): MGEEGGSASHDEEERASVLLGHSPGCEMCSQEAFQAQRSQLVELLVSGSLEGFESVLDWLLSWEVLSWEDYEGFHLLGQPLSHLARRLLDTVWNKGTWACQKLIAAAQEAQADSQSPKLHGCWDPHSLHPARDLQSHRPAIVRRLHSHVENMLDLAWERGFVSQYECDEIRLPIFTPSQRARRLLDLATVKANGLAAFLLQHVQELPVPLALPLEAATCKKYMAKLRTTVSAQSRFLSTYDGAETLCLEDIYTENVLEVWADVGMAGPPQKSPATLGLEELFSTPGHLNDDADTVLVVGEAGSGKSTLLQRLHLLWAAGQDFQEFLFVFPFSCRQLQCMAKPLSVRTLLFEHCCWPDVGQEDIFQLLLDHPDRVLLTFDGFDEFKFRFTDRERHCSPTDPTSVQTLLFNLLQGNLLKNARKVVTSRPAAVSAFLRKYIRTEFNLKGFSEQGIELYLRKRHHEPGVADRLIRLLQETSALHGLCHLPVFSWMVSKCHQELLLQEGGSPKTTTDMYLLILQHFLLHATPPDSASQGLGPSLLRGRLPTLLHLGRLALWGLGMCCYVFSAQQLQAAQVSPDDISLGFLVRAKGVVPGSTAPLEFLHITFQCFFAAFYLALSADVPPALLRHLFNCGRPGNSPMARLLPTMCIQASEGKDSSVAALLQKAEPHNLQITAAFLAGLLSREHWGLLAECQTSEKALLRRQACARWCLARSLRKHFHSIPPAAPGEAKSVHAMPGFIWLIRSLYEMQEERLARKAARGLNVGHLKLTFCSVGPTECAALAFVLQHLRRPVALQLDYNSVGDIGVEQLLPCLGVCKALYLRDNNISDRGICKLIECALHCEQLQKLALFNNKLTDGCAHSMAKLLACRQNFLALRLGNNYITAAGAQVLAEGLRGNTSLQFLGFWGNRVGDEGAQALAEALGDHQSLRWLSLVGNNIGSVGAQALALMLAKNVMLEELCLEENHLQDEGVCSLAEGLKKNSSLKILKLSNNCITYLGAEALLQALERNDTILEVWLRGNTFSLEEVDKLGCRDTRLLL
T4 sequence (P41143 whole entry): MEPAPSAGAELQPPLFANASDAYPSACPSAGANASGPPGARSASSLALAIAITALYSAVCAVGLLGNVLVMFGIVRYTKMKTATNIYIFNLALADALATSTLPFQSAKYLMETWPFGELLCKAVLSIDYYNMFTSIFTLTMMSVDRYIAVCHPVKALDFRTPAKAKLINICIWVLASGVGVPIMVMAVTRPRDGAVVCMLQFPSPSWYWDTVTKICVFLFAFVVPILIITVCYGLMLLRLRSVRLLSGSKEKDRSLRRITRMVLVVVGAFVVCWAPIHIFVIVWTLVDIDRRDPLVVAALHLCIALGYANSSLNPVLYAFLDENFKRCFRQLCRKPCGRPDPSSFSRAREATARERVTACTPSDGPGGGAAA
Sequence of Protein Rev (P04618 whole entry): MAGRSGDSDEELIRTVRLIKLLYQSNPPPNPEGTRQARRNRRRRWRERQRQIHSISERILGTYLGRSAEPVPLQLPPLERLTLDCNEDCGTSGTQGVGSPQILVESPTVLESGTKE

## Nc1nc(C23CC4CCC(CC(C4)C2)C3)cs1
[1]
  IC50: 7.48 µM (active)

## CCOc1ccc(NC(=O)C2CCC(C)(C(=O)O)C2(C)C)cc1 (stereo not given)
[2]
  IC50: > 300 µM (active)

## COc1ccc(C(c2nnnn2Cc2ccccc2)N2CCN(c3ccccc3)CC2)cc1 (stereo not given)
[3]
  EC50: 3.34 µM (active)
[4]
  IC50: > 47.1 µM (inactive)
[5]
  EC50: > 53 µM (inactive)

## Cc1ccc(-n2[nH]c(C)c(C=Nc3ccc(Cl)c4cccnc34)c2=O)cc1
[6]
  EC50: 2.73 µM (active)
[7]
  EC50: 14.8 µM (inactive)
[8]
  IC50: > 32 µM (inactive)
[9]
  IC50: > 32 µM (inactive)
[10]
  EC50: 3.85 µM (active)
[11]
  IC50: > 32 µM (inactive)
[12]
  IC50: > 10 µM (inactive)

## CC12C=CC(C)(O1)C1C(=O)N(c3ccccc3)C(=O)C12 (stereo not given)
[13]
  IC50: 10.5 µM (active)
[14]
  IC50: 11.7 µM (active)

## c1ccc(-c2nnc(CN3CCC4(CC3)OCCO4)o2)cc1
[15]
  IC50: > 100 µM (inactive)

## CCN(CC)S(=O)(=O)c1ccc(N2CCCC2)c(NS(=O)(=O)c2ccc(F)cc2)c1
[16]
  IC50: > 75.4 µM (not active)
[17]
  IC50: 4.04 µM (active)

## Cc1nn(-c2ccccc2)c2nc(C(Cl)(Cl)Cl)[nH]c(=O)c12
[18]
  EC50: 10.5 µM (active)
[19]
  IC50: 6.62 µM (active)
[20]
  IC50: 4.5 µM (active)
[21]
  IC50: 5.9 µM (active)

## Cc1ccc(-n2cc(CNCCc3cscn3)c(-c3ccc(F)cc3)n2)cc1
[22]
  CC50: 23.1 µM (active)
[23]
  CC50: 16.5 µM (active)
[24]
  IC50: 12.7 µM (active)

## O=C(COc1ccc(F)cc1)Nc1nnc(-c2ccc3c(c2)CCCC3)o1
[25]
  EC50: 2.1 µM (active)
